Assay in all cases: NCI tumour cell line growth inhibition, 48 h
For assay [1], the system named is SF-295 CNS.
The test system of assay [2] is HOP-62 NSCLC.
The test system of assay [3] is IGROV1 ovarian.
Assay [4] relates to SNB-19 CNS.
The subject of assay [5] is SNB-75 CNS.
In assay [6] the test system is SF-268 CNS.
The subject of assay [7] is NCI/ADR-RES ovarian.
Assay [8] deals with SW-620 colon.
Assay [9] relates to OVCAR-5 ovarian.
Assay [10] has as its system SK-MEL-2 melanoma.

SMILES strings stand for the structures. Values joined by “and” are separate entries in the source; they are usually repeats but may differ in a detail not shown here. Equal values may be shown once.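 The compound was tested at five concentrations on cells cultured in 96-well plates, with a 48-hour exposure period. GI50 marks 50% less growth. TGI is the concentration that stops growth completely.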

In the case of `O=NN1CCCS1(=O)=O`, the TGI in [1], in assay [2], in assay [3], in [4], in assay [5] and in [6] was more than 100 µM in each case. The TGI in assay [7], in assay [8] and in assay [9] was more than 100 µM throughout.
For `NC1c2c(Cl)sc(Cl)c2C(=O)C1O` (centres undefined), the TGI in assay [1] was more than 100 µM; in assay [3], more than 100 µM; in assay [4] it was more than 100 µM; in [5], more than 100 µM; in [6] it was more than 100 µM; in assay [7], 90.6 µM. The figures for the TGI in assay [8], in [10] and in [9] were 50.5 µM, more than 100 µM and more than 100 µM, respectively.
In the case of `O=C1c2ccccc2C(=O)c2nn(N=P(CP(=Nn3nc4c(n3)C(=O)c3ccccc3C4=O)(c3ccccc3)c3ccccc3)(c3ccccc3)c3ccccc3)nc21`, the TGI in assay [1], in assay [2], in assay [3], in [4], in [6] and in [7] was more than 100 µM in each case. Also, the TGI in assay [8], in assay [10] and in assay [9] was more than 100 µM each time.
In the case of `CCOC(=O)CCC(NC(=O)OCc1ccccc1)C(=O)NC(CCC(=O)OCC)C(=O)NC(CCC(=O)OCC)C(=O)NNC(=O)OC(C)(C)C` (centres undefined), the TGI in assay [2], in [3], in assay [4], in assay [5], in assay [8] and in [10] was more than 100 µM each time. The TGI in [9] was more than 100 µM.
With `CCn1c(=O)c2c3ccc(OC(C)=O)cc3[nH]c2c2ccc(OC(C)=O)cc21`, the TGI was more than 100 µM in assay [1]; more than 100 µM in assay [2]; more than 100 µM in assay [3]; more than 100 µM in [4]; 89.5 µM in [5]; more than 100 µM in assay [6]. For the same molecule, the TGI in assay [7], in [8] and in assay [9] was more than 100 µM in each case.
Turning to `O=c1nc2ccc3sc4ccccc4c(=O)c3n2c(=O)[nH]1`, the TGI in assay [1], in assay [2], in assay [3], in [4], in [5] and in assay [6] was more than 100 µM in each case. Further, the TGI in assay [7], in [8] and in assay [9] was more than 100 µM each time.
As to `Cc1ccc(/C=N\NC(=O)c2ccncc2)s1`, the TGI in [1], in [2], in [3], in assay [4], in assay [6] and in assay [7] was more than 100 µM throughout. For the same molecule, the TGI in assay [8], in assay [10] and in [9] was more than 100 µM throughout.
Consider `C=CCc1ccccc1C1CC2(C(=O)OC)OC1C(C(=O)OC)=C2C(=O)OC` (centres undefined), for which the TGI in [1], in assay [2], in assay [3], in [4], in assay [6] and in [7] was more than 10 µM throughout. The TGI in assay [8], in assay [10] and in assay [9] was more than 10 µM throughout.
On to `O=C(O)Cc1ccccc1CCc1ccccc1Cl`, for which the TGI in assay [1], in [3], in assay [4], in [5], in assay [6] and in assay [8] was more than 100 µM each time. Also, the TGI in assay [10] was 91.7 µM; in assay [9], more than 100 µM.
Regarding `CC1(C)[C@@H](OC(N)=O)C=C[C@]2(CO)[C@H]3CC[C@]4(C)[C@@H](c5ccc(=O)oc5)[C@@H](Cl)C[C@]4(O)C3=CC[C@@H]12`, the GI50 is 0.00268 µM in assay [1]; less than 0.0001 µM in assay [2]; 0.00313 µM and 0.0025 µM in [3]; 0.00887 µM and 0.0025 µM in assay [4]; less than 0.0001 µM in [6]; less than 0.0001 µM in [7]. Further, the GI50 in assay [8] was 0.00262 µM; in assay [10], 0.00402 µM; in assay [9] it was 0.00426 µM. Besides, the TGI in [1] was 0.0144 µM; in [2], 0.00316 µM; in [3], 0.0284 µM and 0.0829 µM; in [4], 0.0228 µM and 0.0461 µM; in assay [6], 0.00254 µM; in assay [7] it was 0.0127 µM. Besides, the TGI in [8] turned out to be 0.0145 µM; in assay [10] it was 0.0294 µM; in assay [9] it was 0.0163 µM.
In the case of `C=C(C)[C@@H]1CC[C@]2(CO)CC[C@]3(C)[C@H](CC[C@@H]4[C@@](C)(CCCN)[C@H](C(=C)C)CC[C@]43C)[C@@H]12`, the GI50 was 1.76 µM in [3]; 1.48 µM in assay [5]; 1.53 µM in assay [6]; 1.75 µM in assay [8]; 1.68 µM in assay [9]. The TGI in assay [3] was 3.22 µM; in assay [5], 2.82 µM; in assay [6], 3.06 µM; in assay [8], 3.51 µM; in assay [9], 3.04 µM.
Regarding `C=CCOC1(CC=C)C(=O)OC2C(O)COC21O` (centres undefined), the TGI in assay [1], in assay [2], in [3], in assay [4], in assay [6] and in assay [7] was more than 100 µM in each case. Further, the TGI in assay [8], in assay [10] and in [9] was more than 100 µM in each case.
Turning to `O=c1c2cc(Br)ccc2ncn1COCc1ccccc1`, the TGI was more than 100 µM in assay [1]; more than 100 µM in [3]; more than 100 µM in assay [4]; more than 1 µM in assay [7]; more than 100 µM in assay [8]; more than 100 µM in [10]. This molecule also showed a TGI in [9] of more than 100 µM.
`C[C@]12CCC(=O)C=C1CC[C@@H]1[C@@H]2[C@@H](O)C[C@@]2(C)[C@H]1CC[C@]2(O)C(=O)COC(=O)CCC1CCCC1`: the TGI in assay [1], in assay [3], in assay [4], in assay [5], in [6] and in [8] was more than 100 µM in each case. The TGI in assay [9] is more than 100 µM.

Source of the values: PubChem BioAssay (NCI).
